The values that follow come from PubChem BioAssay (NCI).

Each structure is given as a SMILES string. Values joined by “and” are separate entries in the source; they are usually repeats but may differ in a detail not shown here. Identical values can stand only once.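 How tested: cells in 96-well plates exposed to compound for 48 hours at five concentrations. Here, GI50 denotes the concentration required for 50% inhibition of growth. TGI: concentration producing complete growth inhibition.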

Some test systems named below: NCI-H226 lung; MALME-3M melanoma; DU-145 prostate; SNB-19 CNS; UO-31 renal; HCC-2998 colon; OVCAR-8 ovarian; TK-10 renal; SW-620 colon; M14 melanoma.
Assay in all cases: DTP human tumour cell line panel, 48 h

Regarding `C/C(N=NC(=S)N1CCCCCC1)=C1\C=CC=CN1O`, the TGI in the test on NCI-H226 lung was more than 90.3 µM; in the test on MALME-3M melanoma, 36.4 µM; with DU-145 prostate it was more than 100 µM; with SNB-19 CNS it was more than 100 µM; in the test with UO-31 renal it was more than 100 µM; in the test on HCC-2998 colon, more than 100 µM. In addition, the TGI in the test on OVCAR-8 ovarian is more than 49.4 µM; with TK-10 renal, more than 100 µM; with SW-620 colon it was more than 100 µM; in the test with M14 melanoma, 38.8 µM.
Regarding `Oc1cccc(-c2nc(N3CCOCC3)c3oc4ncccc4c3n2)c1`, the GI50 with NCI-H226 lung was 4.12 µM and 7.21 µM; in the test on MALME-3M melanoma it was 0.0373 µM and 0.0287 µM; in the test with DU-145 prostate it was 0.188 µM and 0.161 µM; in the test with SNB-19 CNS it was 0.358 µM and 0.247 µM; in the test with UO-31 renal it was 0.0354 µM and 0.0315 µM; in the test on HCC-2998 colon it was 1.85 µM and 0.401 µM. For the same compound, the GI50 in the test with OVCAR-8 ovarian is 0.238 µM and 0.193 µM; in the test on TK-10 renal it was 1.26 µM and 1.51 µM; in the test with SW-620 colon, 0.344 µM and 0.353 µM; in the test with M14 melanoma, 0.127 µM and 0.152 µM. In addition, the concentration for total growth inhibition (TGI) in the test with NCI-H226 lung is 78.6 µM and 68.3 µM; with MALME-3M melanoma, 0.395 µM and 0.264 µM; with DU-145 prostate, more than 100 µM; in the test on SNB-19 CNS it was 7.43 µM and 6.83 µM; in the test with UO-31 renal it was 0.571 µM and 0.449 µM; in the test on HCC-2998 colon, 8.87 µM and > 33.9 µM. The TGI was 6.75 µM in the test on OVCAR-8 ovarian; 4.01 µM and 4.58 µM in the test on TK-10 renal; more than 100 µM in the test with SW-620 colon.
Turning to `CCOc1cccc(/C=N/NC(=O)Cc2ccc(Nc3ccnc(C(F)(F)F)c3)cc2)c1O`, the GI50 in the test on NCI-H226 lung is 3.21 µM; in the test with MALME-3M melanoma, 2.13 µM; in the test with DU-145 prostate, 2.06 µM; in the test with SNB-19 CNS, 2.54 µM; in the test with UO-31 renal, 0.986 µM; in the test with HCC-2998 colon, 6.78 µM. The GI50 in the test on OVCAR-8 ovarian is 3.27 µM; in the test with TK-10 renal, 4.01 µM; with SW-620 colon, 3.06 µM; in the test with M14 melanoma it was 1.79 µM. Besides, the TGI is 34.9 µM in the test with NCI-H226 lung; 18.7 µM in the test with MALME-3M melanoma; more than 100 µM in the test on DU-145 prostate; more than 100 µM in the test on SNB-19 CNS; 20.7 µM in the test on UO-31 renal; 93.4 µM in the test with HCC-2998 colon. For the same compound, the TGI in the test with OVCAR-8 ovarian was more than 100 µM; with TK-10 renal, 44.5 µM; in the test on SW-620 colon, 18 µM; with M14 melanoma, 15.8 µM.
Take `O=C1c2c(O)ccc(O)c2C(=O)c2c(NCCNCCO)ccc(NCCNCCO)c21`: the TGI is 0.0547 µM and 0.1 µM and 0.136 µM in the test on NCI-H226 lung; 1.45 µM and 0.955 µM and 0.974 µM with MALME-3M melanoma; 0.0832 µM and 0.465 µM and 0.31 µM in the test on DU-145 prostate; 0.546 µM and 2.08 µM and 0.79 µM with SNB-19 CNS; 0.835 µM and 0.668 µM and 2.55 µM in the test with UO-31 renal; 1.04 µM and 0.795 µM and 0.908 µM in the test with HCC-2998 colon. For the same compound, the TGI in the test with OVCAR-8 ovarian was 0.388 µM and 0.414 µM and 0.665 µM; in the test with TK-10 renal, 1.36 µM and 0.654 µM and 2.05 µM; with SW-620 colon, 1.91 µM and 1.62 µM and 1.77 µM; with M14 melanoma it was 1.77 µM and 0.809 µM and 2.11 µM.
Take `COc1ccc(-c2nn(-c3cccc(Cl)c3)cc2-c2cc(-c3cccs3)no2)cc1`: the GI50 with NCI-H226 lung is 4.11 µM; in the test on MALME-3M melanoma it was 2.6 µM; with DU-145 prostate it was 7.08 µM; in the test with SNB-19 CNS it was 6.09 µM; in the test on UO-31 renal, 2.56 µM; in the test on HCC-2998 colon, 3.47 µM. The GI50 in the test on OVCAR-8 ovarian is 4.04 µM; in the test with TK-10 renal it was 5.21 µM; in the test on SW-620 colon, 4.35 µM; in the test with M14 melanoma it was 3.3 µM. Further, the TGI in the test with NCI-H226 lung is 30.3 µM; with MALME-3M melanoma it was 10.6 µM; in the test with DU-145 prostate, 35.8 µM; in the test on SNB-19 CNS, more than 100 µM; with UO-31 renal it was 11.8 µM; with HCC-2998 colon, 14.6 µM. For the same compound, the TGI was 36 µM in the test on OVCAR-8 ovarian, 43.8 µM in the test on TK-10 renal, 22.6 µM in the test on SW-620 colon and 17.1 µM in the test with M14 melanoma.
In the case of `O=C1Nc2ccc(Br)cc2C1=Nc1ccc(Cl)cc1`, the TGI with NCI-H226 lung was 58.8 µM; in the test on MALME-3M melanoma it was 48.5 µM; in the test on DU-145 prostate, more than 100 µM; in the test on SNB-19 CNS, 97 µM; in the test on UO-31 renal, 28.9 µM; with HCC-2998 colon, 39.7 µM. For the same compound, the TGI turned out to be 26.7 µM in the test on OVCAR-8 ovarian, 51.4 µM in the test on TK-10 renal, 32.5 µM in the test with SW-620 colon and 72.2 µM in the test with M14 melanoma.
